Assay results from ChEMBL document CHEMBL1201862, “PubChem BioAssay data set” (2004).
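In this assay, cells in 96-well plates receive the compound at five concentrations for 48 hours. Endpoints are linearly interpolated between the surrounding concentrations. GI50 = concentration required for 50% inhibition of growth.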 Activity calls are given as the source filed them. Rule as the data show it: active = GI50 up to about 1.1 µM and inactive = higher.

Key:
Assay in all cases: growth of human tumour cells (NCI), 48 h
[1] = test system: 786-0
[2] = test system: A549
[3] = test system: ACHN
[4] = test system: CCRF-CEM
[5] = test system: HCT-116
[6] = test system: HCT-15
[7] = test system: HL-60
[8] = test system: HOP-62
[9] = test system: HT-29
[10] = test system: LOX IMVI
[11] = test system: M14
[12] = test system: MCF7
[13] = test system: Malme-3M
[14] = test system: NCI-H226
[15] = test system: OVCAR-3
[16] = test system: OVCAR-5
[17] = test system: OVCAR-8
[18] = test system: SF-268
[19] = test system: SNB-75
[20] = test system: UACC-257

SMILES | GI50 [1] | GI50 [2] | GI50 [3] | GI50 [4] | GI50 [5] | GI50 [6] | GI50 [7] | GI50 [8] | GI50 [9] | GI50 [10] | GI50 [11] | GI50 [12] | GI50 [13] | GI50 [14] | GI50 [15] | GI50 [16] | GI50 [17] | GI50 [18] | GI50 [19] | GI50 [20]
CN(CC(=O)O)Cc1c[nH]c2ccccc12 | > 100 µM (inactive) | > 100 µM (inactive) | > 100 µM (inactive) | > 100 µM (inactive) | > 100 µM (inactive) | > 100 µM | > 100 µM (inactive) | > 100 µM (inactive) | > 100 µM (inactive) | > 100 µM (inactive) | > 100 µM (inactive) | > 100 µM (inactive) | > 100 µM (inactive) | > 100 µM (inactive) | > 100 µM (inactive) | > 100 µM (inactive) | > 100 µM (inactive) | > 100 µM (inactive) | > 100 µM (inactive) | > 100 µM (inactive)
CC(C)c1ccc(/C=C2/C=C(c3ccc4ccccc4c3)OC2=O)cc1 | > 100 µM (inactive) | > 89.7 µM (inactive) | 38.4 µM (inactive) | 2.56 µM (inactive) | 68.4 µM (inactive) | 72.3 µM | 19.4 µM (inactive) | > 100 µM (inactive) | > 95.3 µM (inactive) | 40.2 µM (inactive) | 41 µM (inactive) | 88.5 µM (inactive) | 15.8 µM (inactive) | 73.5 µM (inactive) | 60 µM (inactive) | > 100 µM (inactive) | 45.2 µM (inactive) | > 100 µM (inactive) | > 74.1 µM (inactive) | 21 µM (inactive)
Cc1ccc2c(c1)CC1(Cc3cccc(C)c3C1=O)C2=O (stereo not given) | > 100 µM (inactive) | > 100 µM (inactive) | > 100 µM (inactive) | 70.1 µM (inactive) | 64 µM (inactive) | > 100 µM | 38.3 µM (inactive) | > 100 µM (inactive) | 51.3 µM (inactive) | > 10 µM (inactive) | 64.4 µM (inactive) | > 10 µM (inactive) | 85.5 µM (inactive) | > 100 µM (inactive) | > 100 µM (inactive) | 37.3 µM (inactive) | > 100 µM (inactive) | > 100 µM (inactive) | > 100 µM (inactive) | > 100 µM (inactive)
C/C(=N/NC(=S)N1CCCCCC1)c1cccc(/C(C)=N\NC(=S)N2CCCCCC2)n1 | 1.3 µM (inactive) | 2.07 µM (inactive) | 1.48 µM (inactive) | 2.67 µM (inactive) | 1.66 µM (inactive) | 2.09 µM | 1.91 µM (inactive) | 1.89 µM (inactive) | 2.16 µM (inactive) | 1.72 µM (inactive) | 1.71 µM (inactive) | 1.57 µM (inactive) | 0.938 µM (active) | 1.75 µM (inactive) | 1.01 µM (active) | 2.24 µM (inactive) | 1.55 µM (inactive) | 2.51 µM (inactive) | 1.95 µM (inactive) | 1.58 µM (inactive)
O=c1c2ncn(C3CCCCO3)c2n(-c2ccccc2)c(=S)n1-c1ccccc1 (stereo not given) | 16.4 µM (inactive) | 78 µM (inactive) | 45.1 µM (inactive) | > 83 µM (inactive) | 45.5 µM (inactive) | 55.3 µM | > 64.4 µM (inactive) | 10.4 µM (inactive) | > 76.4 µM (inactive) | 56.5 µM (inactive) | > 92.5 µM (inactive) | 49.5 µM (inactive) | > 41.5 µM (inactive) | 25.9 µM (inactive) | > 61.9 µM (inactive) | > 61.1 µM (inactive) | 19 µM (inactive) | 11 µM (inactive) | 7.69 µM (inactive) | 61.9 µM (inactive)
O=C1c2cccc3cccc(c23)C2NCCCN12 (stereo not given) | > 100 µM (inactive) | > 100 µM (inactive) | 68.7 µM (inactive) | 37.7 µM (inactive) | > 100 µM (inactive) | > 100 µM | > 100 µM (inactive) | > 100 µM (inactive) | > 100 µM (inactive) | > 100 µM (inactive) | > 100 µM (inactive) | 95.3 µM (inactive) | > 100 µM (inactive) | 52.8 µM (inactive) | > 100 µM (inactive) | > 100 µM (inactive) | > 100 µM (inactive) | > 100 µM (inactive) | < 0.01 µM (active) | > 100 µM (inactive)
COc1cc2c(cc1OC)C(SC)C(=O)N(Cc1cccc(OC)c1OC)CC2 (stereo not given) | 3.85 µM (inactive) | 1.73 µM (inactive) | 5.04 µM (inactive) | 3.61 µM (inactive) | 1.92 µM (inactive) | 0.718 µM | 0.411 µM (active) | 2.75 µM (inactive) | 1.03 µM (active) | 2.1 µM (inactive) | 2.28 µM (inactive) | 0.746 µM (active) | 3.15 µM (inactive) | 3.21 µM (inactive) | 0.798 µM (active) | 14.9 µM (inactive) | 4.29 µM (inactive) | 4.67 µM (inactive) | 3.3 µM (inactive) | 2.95 µM (inactive)
COc1ccc(C=O)cc1OS(=O)(=O)C(F)(F)C(F)(F)C(F)(F)C(F)(F)F | 31.6 µM (inactive) | 48.4 µM (inactive) | 44.5 µM (inactive) | 14.8 µM (inactive) | 27.2 µM (inactive) | 26.9 µM | 8.75 µM (inactive) | 26.6 µM (inactive) | 29.9 µM (inactive) | 15.2 µM (inactive) | 28 µM (inactive) | 26.1 µM (inactive) | 23.4 µM (inactive) | > 100 µM (inactive) | 27 µM (inactive) | 50.7 µM (inactive) | 28.1 µM (inactive) | 26.5 µM (inactive) | 31.2 µM (inactive) | 36.6 µM (inactive)
c1ccc2c(c1)ncn2C1CCCCO1 (stereo not given) | > 100 µM (inactive) | > 100 µM (inactive) | > 100 µM (inactive) | > 100 µM (inactive) | > 100 µM (inactive) | > 100 µM | > 100 µM (inactive) | > 100 µM (inactive) | > 100 µM (inactive) | > 100 µM (inactive) | > 100 µM (inactive) | > 100 µM (inactive) | > 100 µM (inactive) | > 100 µM (inactive) | > 100 µM (inactive) | > 100 µM (inactive) | > 100 µM (inactive) | > 100 µM (inactive) | > 100 µM (inactive) | > 100 µM (inactive)
Cc1cc2c(c(O)c1-c1c(C)cc(O)c3c1C(=O)C=CC3=O)C(=O)C=CC2=O | 1.16 µM (inactive) | 17.7 µM (inactive) | 0.388 µM (active) | < 0.01 µM (active) | 1.21 µM (inactive) | 1.52 µM | < 0.01 µM (active) | 20.3 µM (inactive) | 1.58 µM (inactive) | 1.11 µM (active) | 2.18 µM (inactive) | 0.966 µM (active) | 0.342 µM (active) | 20.2 µM (inactive) | 2.08 µM (inactive) | 2.62 µM (inactive) | 1.95 µM (inactive) | 1.92 µM (inactive) | 5.5 µM (inactive) | 1.62 µM (inactive)
Nc1cccc(/C=C/CN2CCN(CCOC(c3ccccc3)c3ccccc3)CC2)c1 | 14.8 µM (inactive) | 15.1 µM (inactive) | 17.9 µM (inactive) | 9.98 µM (inactive) | 12.5 µM (inactive) | 12.8 µM | 5.05 µM (inactive) | 13.8 µM (inactive) | 3.15 µM (inactive) | 15.6 µM (inactive) | 12.8 µM (inactive) | 13.8 µM (inactive) | 18.2 µM (inactive) | 21.2 µM (inactive) | 15.6 µM (inactive) | 16 µM (inactive) | 16 µM (inactive) | 17.7 µM (inactive) | 10.5 µM (inactive) | 15.9 µM (inactive)
COC(=O)/C=C\C(C#N)(C#N)/N=C/c1ccc(C)s1 | 1.69 µM (inactive) | 18.4 µM (inactive) | 1.67 µM (inactive) | 0.0847 µM (active) | 1.32 µM (inactive) | 1.67 µM | 2.29 µM (inactive) | 14.9 µM (inactive) | 1.51 µM (inactive) | 1.67 µM (inactive) | 1.85 µM (inactive) | 1.49 µM (inactive) | 1.6 µM (inactive) | 16.7 µM (inactive) | 3.94 µM (inactive) | 6.53 µM (inactive) | 3.69 µM (inactive) | 6.82 µM (inactive) | 3.12 µM (inactive) | 2.73 µM (inactive)
CC(=O)N(C(C)=O)n1c(Cc2ccc(Cl)cc2)n[nH]c1=O | > 100 µM (inactive) | > 100 µM (inactive) | > 100 µM (inactive) | > 100 µM (inactive) | > 100 µM (inactive) | > 100 µM | > 100 µM (inactive) | > 55.8 µM (inactive) | > 100 µM (inactive) | > 88.5 µM (inactive) | > 100 µM (inactive) | > 100 µM (inactive) | > 52.7 µM (inactive) | > 100 µM (inactive) | > 100 µM (inactive) | > 100 µM (inactive) | > 100 µM (inactive) | > 100 µM (inactive) | > 81.8 µM (inactive) | > 100 µM (inactive)
C[n+]1ccc(/C2=C3\C=CC(=N3)/C(c3cc[n+](C)cc3)=c3/cc/c([nH]3)=C(\c3cc[n+](C)cc3)C3=N/C(=C(/c4cc[n+](C)cc4)C4C=CC2N4)C=C3)cc1 | > 100 µM (inactive) | 80.2 µM (inactive) | > 100 µM (inactive) | > 75.7 µM (inactive) | > 81.1 µM (inactive) | > 100 µM | > 100 µM (inactive) | > 100 µM (inactive) | 51.9 µM (inactive) | > 100 µM (inactive) | > 100 µM (inactive) | > 100 µM (inactive) | > 100 µM (inactive) | > 75.7 µM (inactive) | > 95.5 µM (inactive) | > 100 µM (inactive) | > 100 µM (inactive) | > 100 µM (inactive) | 51.1 µM (inactive) | > 48.5 µM (inactive)
